Results reported in patent US12091387B2, “Quinoline cGAS antagonist compounds” (IMMUNESENSOR THERAPEUTICS, INC., priority 2022, dated 2024).

How the values were obtained:
[1] = system: cGAS activity in reporter THP1 cell line; assay: Cellular assay to measure cGAS activity (ISRE-Gaussia luciferase reporter THP1 cells, ISD transfection); type: cell-based; settings: Homo sapiens, THP-1, 2 μg/mL ISD transfection, 16 hours, luciferase luminescence
Method: Cellular assay to measure cGAS activity: Reporter THP1 cell line harboring a gene encoding Gaussia Luciferase under the control of 5 tandem repeats of interferon-stimulated response elements (ISRE) fused to an ISG54 minimal promoter was used to test inhibition of cGAS activity by synthetic compounds in human cells. These cells were plated on 96-well plates at 0.3×10^6/well and incubated with serial dilutions of compounds or DMSO for 5 min, followed by transfection of 2 μg/mL of ISD (Interferon Stimulatory DNA, a 45 bp DNA oligo) or mock transfected using lipofectamine 2000 (Life Technology) method, according to manufacturer's instructions. 16 hours later, 15 μL of the media from each well was transferred to a new plate, 50 μL of solution containing 50 mM Hepes-NaOH, pH 6.5, 50 mM NaCl, 10 mM EDTA, 1 μM of coeleanterazine is added to each well and luminescence is measured immediately. Fold increase in luminescence compared to mock transfection was plotted against concentrations of each compound, and IC50 is calculated using Graphpad. To evaluate the specificity of a compound, the same procedure is performed except that cells are transfected with 2 μg/mL […] or infected with Sendai Virus (SeV) at 50 Unit/mL, which are known to activate the RIG-I-MAVS pathway. A specific inhibitory compound should inhibit interferon induction by DNA but have minimal effect on poly(I:C) or Sendai virus induced interferon reporter gene expression.
The letter codes for cGAS IC50 include: A (<2 μM); B (2-10 μM); C (>10 μM).

[2] = target: T1, recombinant human cGAS (aa147-522) (Homo sapiens, UniProt Q8N884); assay: In vitro inhibition assay of cGAS activity (KinaseGlo, ATP consumption); type: biochemical; settings: Herring testis DNA, 6.6 μM ATP, 0.1 mM GTP, 37° C. 20 minutes
T1 construct: recombinant human cGAS (aa147-522); His6-SUMO (N, cleaved yes); made in house; host or cells: E. coli BL21/pLys
T1 sequence (Q8N884 147-522): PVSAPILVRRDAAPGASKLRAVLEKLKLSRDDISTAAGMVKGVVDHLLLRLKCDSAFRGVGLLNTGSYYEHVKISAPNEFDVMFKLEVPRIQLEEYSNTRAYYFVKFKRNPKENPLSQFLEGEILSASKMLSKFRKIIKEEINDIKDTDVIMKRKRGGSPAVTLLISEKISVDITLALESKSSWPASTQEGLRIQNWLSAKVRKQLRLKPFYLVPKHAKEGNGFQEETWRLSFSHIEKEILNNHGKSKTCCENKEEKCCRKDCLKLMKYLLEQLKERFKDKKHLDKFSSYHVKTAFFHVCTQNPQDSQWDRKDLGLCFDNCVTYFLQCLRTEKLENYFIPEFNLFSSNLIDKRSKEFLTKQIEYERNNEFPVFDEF
Method: Expression and Purification of Recombinant cGAS Protein: cDNA encoding full-length or amino acids 147-520 of human cGAS was inserted into a modified pET28a vector containing an in-frame His6-SUMO tag. The E. coli strain BL21/pLys harboring the plasmid was induced with 0.5 mM IPTG at 18° C. overnight. His6-SUMO tag was removed by a SUMO protease digestion following purification of the His6-SUMO-cGAS as described previously (Sun et al, 2013, Science 339, 786).
In vitro inhibition assay of cGAS activity: A 60 μL mixture containing 20 mM Tris-Cl, pH 7.5, 5 mM MgCl2, 0.2 mg/mL BSA, 0.01 mg/mL Herring testis DNA, 6.6 μM ATP, 0.1 mM GTP, 1.5 μg/mL of recombinant human cGAS (aa147-522) and serial dilutions of a test compound in DMSO is added to a 96-well plate and incubated at 37° C. for 20 minutes. At the end of reaction, 40 μL of KinaseGlo Max (Promega) is added and chemiluminescence was measured with a luminometer. Inhibitory effect of a compound is evaluated by plotting percentage of ATP consumption against logarithm of compound concentrations. IC50 value is calculated using GraphPad Prism 8 (GraphPad Software, Inc.).
The letter codes for cGAS IC50 include: A (<2 μM); B (2-30 μM); C (>30 μM).

| SMILES | IC50 [1] [nM] | IC50 [2] [nM] |
| --- | --- | --- |
| O=C(O)CCOC[C@@H]1CCCN1c1cc(-c2cncnc2)c2ccc(Cl)c(Cl)c2n1 [I-917] | > 10000 | < 2000 |
| O=C(O)CCOC[C@@H]1CCCN1c1cc(-n2cncn2)c2ccc(Cl)c(Cl)c2n1 [I-892] | < 2000 | < 2000 |
| O=C(O)CCOC[C@@H]1CC2(CC2)CN1c1cc(-n2cncn2)c2cc(Cl)c(Br)cc2n1 [I-896] | < 2000 | < 2000 |
| COc1ccc(-c2cc(N3CCC[C@H]3COCCC(=O)O)nc3c(Cl)c(Cl)ccc23)cc1 [I-911] | > 10000 | > 30000 |
| COc1cccc(-c2cc(N3CCC[C@H]3COCCC(=O)O)nc3c(Cl)c(Cl)ccc23)c1 [I-912] | > 10000 | > 30000 |
| COC(=O)[C@@H]1[C@@H](O)CCN1c1cc(-n2cncn2)c2cc(Br)c(Cl)c(Cl)c2n1 [I-933] | < 2000 | < 2000 |
| O=C(O)CCOC[C@@H]1C[C@@H]2C[C@@H]2N1c1cc(-n2cncn2)c2cc(Cl)c(Br)cc2n1 [I-927] | < 2000 | < 2000 |
| O=C(O)CCOC[C@H]1CC2(CC2)CN1c1cc(-n2cncn2)c2cc(Br)c(Cl)c(Cl)c2n1 [I-926] | < 2000 | < 2000 |
| CN1CCN(c2cc(N3CCC[C@H]3COCCC(=O)O)nc3c(Cl)c(Cl)ccc23)CC1 [I-921] | > 10000 | > 30000 |
| O=C(O)CCOC[C@@H]1CCCN1c1cc(-c2cccc(F)c2)c2ccc(Cl)c(Cl)c2n1 [I-914] | > 10000 | 2000 to 30000 |
| O=C(O)[C@@H]1[C@@H](O)CCN1c1cc(-n2cncn2)c2cc(Cl)c(Br)cc2n1 [I-934] | > 10000 | < 2000 |
| O=C(O)CCOC[C@@H]1CCN(c2cc(-n3cncn3)c3cc(Cl)c(Br)cc3n2)C1 [I-935] | < 2000 | < 2000 |
| O=C(O)CCOC[C@@H]1CCCN1c1cc(-c2cncs2)c2ccc(Cl)c(Cl)c2n1 [I-907] | < 2000 | < 2000 |
| O=C(O)CCOC[C@@H]1CCCN1c1cc(-c2cccc(CO)c2)c2ccc(Cl)c(Cl)c2n1 [I-909] | > 10000 | > 30000 |
| O=C(O)CCOC[C@H]1CCCN1c1cc(-n2cncn2)c2cc(Cl)c(Br)cc2n1 [I-924] | > 10000 | 2000 to 30000 |
| O=C(O)CCOC[C@@H]1CCCN1c1cc(-c2ncn[nH]2)c2ccc(Br)cc2n1 [I-901, (S)-3-((1-(7-bromo-4-(4H-1,2,4-triazol-3-yl)quinolin-2-yl)pyrrolidin-2-yl)methoxy)propanoic acid] | > 10000 | 2000 to 30000 |
| O=C(O)CCOC[C@@H]1C[C@H](C(F)(F)F)CN1c1cc(-n2cncn2)c2cc(Cl)c(Br)cc2n1 [I-929] | < 2000 | < 2000 |
| O=C(O)CCOC[C@@H]1CCCN1c1cc(-c2cnco2)c2ccc(Br)cc2n1 [I-903, (S)-3-((1-(7-bromo-4-(oxazol-5-yl)quinolin-2-yl)pyrrolidin-2-yl)methoxy)propanoic acid] | 2000 to 10000 | < 2000 |
| O=C(O)CCOC[C@@H]1CCCN1c1cc(-n2cncn2)c2cc(Br)c(Cl)c(Cl)c2n1 [I-895] | < 2000 | < 2000 |
| O=C(O)CCOC[C@@H]1CCCN1c1cc(N2CCOCC2)c2ccc(Cl)c(Cl)c2n1 [I-919] | > 10000 | > 30000 |
| O=C(O)CCOC[C@@H]1CCCN1c1cc(-c2cscn2)c2ccc(Cl)c(Cl)c2n1 [I-908] | > 10000 | > 30000 |
| O=C(O)CCOC[C@@H]1CCCN1c1cc(C2=CNCC2)c2ccc(Cl)c(Cl)c2n1 [I-923] | > 10000 | 2000 to 30000 |
| O=C(O)CCOC[C@@H]1CCCN1c1cc(-n2cncn2)c2c(Cl)c(Cl)ccc2n1 [I-932] | < 2000 | < 2000 |
| COC(=O)[C@@H]1[C@@H](O)CCN1c1cc(-n2cncn2)c2cc(Cl)c(Br)cc2n1 [I-936] | < 2000 | < 2000 |

| SMILES | IC50 [1] [nM] | IC50 [2] [nM] |
| --- | --- | --- |
| O=C(O)CCOC[C@@H]1CCN(c2cc(-n3cncn3)c3cc(Br)c(Cl)c(Cl)c3n2)C1 [I-937] | < 2000 | < 2000 |
| C[C@H]1C[C@@H](COCCC(=O)O)N(c2cc(-n3cncn3)c3cc(Cl)c(Br)cc3n2)C1 [I-928] | < 2000 | < 2000 |
| O=C(O)CCOC[C@@H]1CCCN1c1cc(C2=CCNC2)c2ccc(Cl)c(Cl)c2n1 [I-922] | > 10000 | > 30000 |
| O=C(O)CCOC[C@@H]1C[C@@H]2C[C@@H]2N1c1cc(-n2cncn2)c2cc(Br)c(Cl)c(Cl)c2n1 [I-930] | < 2000 | < 2000 |
| O=C(O)CCOC[C@@H]1CCCN1c1cc(-c2cccc(O)c2)c2ccc(Cl)c(Cl)c2n1 [I-910] | > 10000 | > 30000 |
| O=C(O)CCOC[C@@H]1CCCN1c1cc(N2CCNCC2)c2ccc(Cl)c(Cl)c2n1 [I-920] | > 10000 | > 30000 |
| O=C(O)CCOC[C@@H]1CCCN1c1cc(-n2cncn2)c2cc(Cl)c(Cl)cc2n1 [I-931] | < 2000 | < 2000 |
| O=C(O)CCOC[C@@H]1CCCN1c1cc(-c2ccncc2)c2ccc(Cl)c(Cl)c2n1 [I-916] | > 10000 | > 30000 |
| O=C(O)CCOC[C@@H]1CCCN1c1cc(-c2cccnc2)c2ccc(Cl)c(Cl)c2n1 [I-915] | > 10000 | > 30000 |
| O=C(O)CCOC[C@@H]1CCCN1c1cc(-c2ccc(F)cc2)c2ccc(Cl)c(Cl)c2n1 [I-913] | > 10000 | > 30000 |
| O=C(O)CCOC[C@@H]1CCCN1c1cc(-c2cnsc2)c2ccc(Cl)c(Cl)c2n1 [I-906] | < 2000 | < 2000 |
| O=C(O)CCOC[C@@H]1CC2(CC2)CN1c1cc(-n2cncn2)c2ccc(Cl)c(Cl)c2n1 [I-898] | < 2000 | < 2000 |
| O=C(O)CCOC[C@@H]1CCCN1c1cc(-c2ccnnc2)c2ccc(Cl)c(Cl)c2n1 [I-918] | > 10000 | > 30000 |
| O=C(O)CCOC[C@@H]1CCCN1c1cc(-c2cnoc2)c2ccc(Cl)c(Cl)c2n1 [I-902] | 2000 to 10000 | < 2000 |
| O=C(O)CCOC[C@H]1CCCN1c1cc(-n2cncn2)c2cc(Br)c(Cl)c(Cl)c2n1 [I-925] | < 2000 | < 2000 |
| CCN(CCOCCC(=O)O)c1cc(-n2cncn2)c2cc(Br)c(Cl)c(Cl)c2n1 [I-938] | < 2000 | < 2000 |
| O=C(O)CCOC[C@@H]1CCCN1c1cc(-n2cncn2)c2cc(Cl)c(Br)cc2n1 [I-893] | < 2000 | < 2000 |
| O=C(O)CCOC[C@@H]1CCCN1c1cc(-n2ccnn2)c2ccc(Cl)c(Cl)c2n1 [I-900, (S)-3-((1-(7,8-dichloro-4-(1H-1,2,3-triazol-1-yl)quinolin-2-yl)pyrrolidin-2-yl)methoxy)propanoic acid] | < 2000 | < 2000 |
| Cc1c(Br)ccc2c(-n3cncn3)cc(N3CCC[C@H]3COCCC(=O)O)nc12 [I-894] | < 2000 | < 2000 |
| O=C(O)CCOC[C@@H]1CCCN1c1cc(-c2ccsc2)c2ccc(Cl)c(Cl)c2n1 [I-905] | > 10000 | > 30000 |
| O=C(O)CCOC[C@@H]1CCCN1c1cc(-c2cnn[nH]2)c2ccc(Cl)c(Cl)c2n1 [I-899, (S)-3-((1-(7,8-dichloro-4-(1H-1,2,3-triazol-4-yl)quinolin-2-yl)pyrrolidin-2-yl)methoxy)propanoic acid] | < 2000 | < 2000 |
| O=C(O)CCOC[C@@H]1CC2(CC2)CN1c1cc(-n2cncn2)c2cc(Br)c(Cl)c(Cl)c2n1 [I-897] | < 2000 | < 2000 |
| O=C(O)CCOC[C@@H]1CCCN1c1cc(-c2cocn2)c2ccc(Cl)c(Cl)c2n1 [I-904] | > 10000 | > 30000 |
